From patent US12012411B2, “Viral replication inhibitors” (Katholieke Universiteit Leuven, priority 2011, dated 2024)
Where two headings read alike, the source gives them in different places.

What was measured:
in vitro = conditions: African green monkey; for CC50 at 4 days: uninfected quiescent Vero-B cells
DENV-2 NGC = assay: Antiviral activity against DENV-2 NGC in Vero-B cells (viral RNA load by RT-qPCR); type: cell-based, Dengue virus; conditions: DENV-2 in Vero-B cells, inhibition of viral RNA replication by 50% (Table 3)
[1] = tested on: DENV-4 strain Dak HD 34 460; assay: Antiviral activity against DENV-4 in Vero-B cells (viral RNA load by RT-qPCR); type: cell-based, Dengue virus; conditions: Dengue virus, DENV4, Vero B
[2] = tested on: DENV-1 Djibouti strain D1/H/IMTSSA/98/606; assay: Antiviral activity against DENV-1 in Vero-B cells (viral RNA load by RT-qPCR); type: cell-based, Dengue virus
[3] = tested on: DENV-3 strain H87 prototype; assay: Antiviral activity against DENV-3 in Vero-B cells (viral RNA load by RT-qPCR); type: cell-based, Dengue virus

SMILES	CC50 at 4 days (in vitro) [nM]	EC50 (DENV-2 NGC) [nM]	EC50 [1] [nM]	EC50 [2] [nM]	EC50 [3] [nM]	EC50 (DENV-2 NGC; Dengue virus, DENV2, Vero B) [nM]	EC50 ([2]; Dengue virus, DENV1, Vero B) [nM]	EC50 ([3]; Dengue virus, DENV3, Vero B) [nM]	CC50 (in vitro) [nM]
COc1cncc(NC(C(=O)c2c[nH]c3ccc(F)cc23)c2ccc(OC)nc2)c1 (single isomer, unassigned) [CPD-322]	51000	20	3000	300	320				
COc1cccc(NC(C(=O)c2c[nH]c3ccccc23)c2cc(C)on2)c1 (stereo not shown) [CPD-025]	48000		11800			680	7890	13000	
COc1cccc(NC(C(=O)c2c[nH]c3ccccc23)c2cn3ccccc3n2)c1 (stereo not shown) [CPD-030]	> 126000		13200			90	4800	6240	
COc1cccc(NC(C(=O)c2c[nH]c3ccccc23)c2cccc3ccnn23)c1 (stereo not shown) [CPD-043]	> 126000		4760			290	3380	5880	
COc1cc(NC(C(=O)c2c[nH]c3ccccc23)c2ccccc2)ccn1 (stereo not shown) [CPD-045]	> 139000		11000			60	640	870	
COc1cccc(NC(C(=O)c2cn(C)c3ccccc23)c2ccccc2)c1 (stereo not shown) [CPD-049]	> 134000		2270			80	2210	10500	
CN(C)C(=O)c1cccc(NC(C(=O)c2c[nH]c3ccccc23)c2ccccc2)c1 (stereo not shown) [CPD-051]	> 125000		32600			2470	5760	24200	
COc1cccc(NC(C(=O)c2c[nH]c3ccccc23)c2ccc(OC)nc2)c1 (stereo not shown) [CPD-055]	50000		4440			70	1860	3380	
COc1cccc(NC(C(=O)N2CCc3ccccc32)c2ccccc2)c1 (stereo not shown) [CPD-056]	> 139000		5920			450	10600	69200	
COc1cccc(NC(C(=O)c2c[nH]c3c(Cl)cccc23)c2ccccc2)c1 (stereo not shown) [CPD-084]	> 127000		3090			30	< 500	2380	
COc1cccc(NC(C(=O)c2c[nH]c3ccc(Cl)cc23)c2ccccc2)c1 (stereo not shown) [CPD-086]	12000		3570			40	970	1050	
COc1cccc(NC(C(=O)c2cn(CCO)c3ccccc23)c2ccccc2)c1 (stereo not shown) [CPD-104]			14900			350	3850	24000	65000
COc1cccc(NC(C(=O)c2c[nH]c3ccc(C#N)cc23)c2ccccc2)c1 (stereo not shown) [CPD-126]	16000		6290			70	2990	8500	
COc1cccc(NC(C(=O)c2c[nH]c3ccc(C)cc23)c2ccccc2)c1 (stereo not shown) [CPD-130]	15000		7420			30	350	1700	
COc1cccc(NC(C(=O)c2cn(C)c3ccc(F)cc23)c2ccccc2)c1 (stereo not shown) [CPD-137]	> 128000		2780			50	670	3810	
COc1cccc(NC(C(=O)c2cn(CCO)c3ccc(F)cc23)c2ccccc2)c1 (stereo not shown) [CPD-146]			4250			50	690	2720	25000
COc1cc(NC(C(=O)c2cn(CCO)c3ccccc23)c2ccccc2)cc(OC)c1 (stereo not shown) [CPD-148]			2870			70	1650	5540	44000
COc1cccc(NC(C(=O)c2c[nH]c3cc(Cl)ccc23)c2cn3ccccc3n2)c1 (stereo not shown) [CPD-150]	105000		8870			30	1280	1070	
COc1cccc(NC(C(=O)c2c[nH]c3ccc(F)cc23)c2cccnc2)c1 (stereo not shown) [CPD-151]	> 133000		4870			90	530	2100	
COc1cccc(NC(C(=O)c2c[nH]c3cc(F)ccc23)c2cccnc2)c1 (stereo not shown) [CPD-152]	75000		5620			90	2050	990	
COc1cccc(NC(C(=O)c2c[nH]c3c(F)cccc23)c2cccnc2)c1 (stereo not shown) [CPD-153]	> 133000		3680			290	6260	2260	
COc1cccc(NC(C(=O)c2c[nH]c3ccc(F)cc23)c2ccc(OC)nc2)c1 (stereo not shown) [CPD-154]	44000		9870			60	3920	4400	

SMILES	CC50 at 4 days (in vitro) [nM]	EC50 (DENV-2 NGC) [nM]	EC50 [1] [nM]	EC50 [2] [nM]	EC50 [3] [nM]	EC50 (DENV-2 NGC; Dengue virus, DENV2, Vero B) [nM]	EC50 ([2]; Dengue virus, DENV1, Vero B) [nM]	EC50 ([3]; Dengue virus, DENV3, Vero B) [nM]	CC50 (in vitro) [nM]
COc1cc(NC(C(=O)c2cn(CCCO)c3ccc(F)cc23)c2ccccc2)cc(OC)c1 (stereo not shown) [CPD-156]			3370			20	610	2120	11000
COc1cncc(NC(C(=O)c2c[nH]c3cc(F)ccc23)c2ccccc2)c1 (stereo not shown) [CPD-157]	15000		5100			50	1310	850	
COc1cncc(NC(C(=O)c2c[nH]c3ccccc23)c2ccc(OC)nc2)c1 (stereo not shown) [CPD-158]	63000		7200			90	2500	2190	
COc1cncc(NC(C(=O)c2c[nH]c3ccccc23)c2ccc(C#N)cc2)c1 (stereo not shown) [CPD-159]	67000		6860			110	1480	3160	
COc1cccc(NC(C(=O)c2nn(C)c3ccccc23)c2ccccc2)c1 (stereo not shown) [CPD-203]	> 134000		5320			730	5090	5060	
COc1cc(NC(C(=O)c2c[nH]c3ccc(F)cc23)c2ccc(OC)nc2)cc(OC)c1 (stereo not shown) [CPD-206]	12000		1520			20	370	670	
COc1cccc(NC(C(=O)c2c[nH]c3cc(F)ccc23)c2ccc(OC)nc2)c1 (stereo not shown) [CPD-213]	15000		2850			60	810	2540	
COc1cccc(NC(C(=O)c2c[nH]c3ccccc23)c2ccc(F)nc2)c1 (stereo not shown) [CPD-214]	16000		4160			30	150	990	
COc1cccc(NC(C(=O)c2c[nH]c3c(OC)cccc23)c2ccccc2)c1 (stereo not shown) [CPD-222]	> 129000		3140			130	1810	3270	
COc1cccc(NC(C(=O)c2c[nH]c3ccc(S(C)(=O)=O)cc23)c2ccccc2)c1 (stereo not shown) [CPD-229]	> 115000		7550			2400	2810	43000	
COc1cc(NC(C(=O)c2c[nH]c3nc(C)ccc23)c2ccccc2)cc(OC)c1 (stereo not shown) [CPD-232]	> 125000		1150			100	850	2690	
COc1cc(NC(C(=O)c2c[nH]c3ccccc23)c2ccc(C#N)cc2)cc(OC)c1 (stereo not shown) [CPD-233]	11000		3090			10	220	1290	
COc1cc(NC(C(=O)c2c[nH]c3ncc(F)cc23)c2ccccc2)cc(OC)c1 (stereo not shown) [CPD-234]	15000		4190			50	760	2000	
COc1cccc(NC(C(=O)c2c[nH]c3ccccc23)c2cn3ncccc3n2)c1 (stereo not shown) [CPD-238]	> 125000		10200			40	540	1650	
COc1cccc(NC(C(=O)c2c[nH]c3ccccc23)c2cnc(OC)nc2)c1 (stereo not shown) [CPD-240]	63000		8730			110	1200	2380	
COc1cncc(NC(C(=O)c2c[nH]c3ccc(F)cc23)c2ccc(OC)nc2)c1 (stereo not shown) [CPD-241]	58000		5690			40	620	620	
COc1cccc(NC(C(=O)c2cn(CCO)c3cc(F)ccc23)c2ccccc2)c1 (stereo not shown) [CPD-245]			3010			80	700	2380	16000
COc1cccc(NC(C(=O)c2c[nH]c3ccccc23)c2cnc(OC)cn2)c1 (stereo not shown) [CPD-249]	53000		1980			100	1130	4570	
COc1cc(NC(C(=O)c2c[nH]c3ccccc23)c2ccccc2)cnc1OC (stereo not shown) [CPD-256]	83000		19900			190	6760	4490	
COc1cccc(NC(C(=O)c2nn(C)c3ccccc23)c2ccc(C#N)cc2)c1 (stereo not shown) [CPD-260]	> 126000		5440			80	6630	22600	
COc1cc(NC(C(=O)c2nn(C)c3ccccc23)c2ccccc2)cc(OC)c1 (stereo not shown) [CPD-265]	> 124000		4880			20	290	1640	
COc1cccc(NC(C(=O)c2nn(C)c3cc(OC)ccc23)c2ccccc2)c1 (stereo not shown) [CPD-266]	> 124000		3510			60	700	4320	
